Data: patent US10858342B2, “Bicyclic imidazole derivatives useful for the treatment of renal diseases, cardiovascular diseases and fibrotic diseases” (Boehringer Ingelheim International GmbH, priority 2016, dated 2020)
Like-named read-outs stand apart in the source and are kept apart here.

Legend:
Assay type in all cases: biochemical, cynomolgus monkey
[1] = molecular target: aldosterone synthase (CYP11B2) (Macaca fascicularis, UniProt A0A2K5UPL9); experiment: Inhibition of aldosterone synthase (cynomolgus adrenal mitochondria, aldosterone by mass spectrometry); settings: 2 μM corticosterone substrate, 50 units CYP11B2, 90 min, 37° C.; read-out: Aldosterone Inhibition IC50
aldosterone synthase (CYP11B2) (Macaca fascicularis, UniProt A0A2K5UPL9), sequence (A0A2K5UPL9 1-503): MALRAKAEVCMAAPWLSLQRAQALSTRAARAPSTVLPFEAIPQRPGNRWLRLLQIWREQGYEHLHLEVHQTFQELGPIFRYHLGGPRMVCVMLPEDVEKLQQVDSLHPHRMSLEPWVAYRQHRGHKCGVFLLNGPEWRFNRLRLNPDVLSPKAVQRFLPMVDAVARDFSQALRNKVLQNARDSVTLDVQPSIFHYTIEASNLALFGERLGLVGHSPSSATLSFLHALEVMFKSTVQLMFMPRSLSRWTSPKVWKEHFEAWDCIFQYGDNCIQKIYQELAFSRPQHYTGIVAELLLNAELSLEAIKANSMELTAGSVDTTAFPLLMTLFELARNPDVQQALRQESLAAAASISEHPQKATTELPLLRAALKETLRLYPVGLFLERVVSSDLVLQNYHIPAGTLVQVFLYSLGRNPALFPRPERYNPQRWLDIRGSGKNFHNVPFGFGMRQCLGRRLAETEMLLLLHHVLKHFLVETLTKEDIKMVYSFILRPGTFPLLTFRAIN
Protocol: (§1) The aldosterone synthase and cortisol synthase inhibition assays employ cynomolgus adrenal gland mitochondria as the source of aldosterone synthase (CYP11B2) and cortisol synthase (CYP11B1). […] One unit of CYP11B2 and CYP11B1 activity in these preparations is defined as the amount of enzyme that generates 1 pmol of product in one hour under the conditions described.
(§2) The compounds of the invention may be evaluated for aldosterone synthase inhibition by the following assay:
(§3) Assays are performed in 96-well format in a final volume of 60 microL/well, containing 100 mM potassium phosphate, pH 7.4, 1% (v/v) DMSO, and additionally, 2 μM of corticosterone and 50 units of CYP11B2 activity. Reactions are started by the addition of NADPH to 1 mM and allowed to proceed for 90 minutes at 37° C. Reactions are terminated by the addition of 60 μL of MeCN containing an internal standard for mass spectrometry. One hundred microliters are then transferred to a glass filter plate and centrifuged at 570×g for 5 minutes and the filtrate is collected. Reaction product aldosterone is quantified by mass spectrometry. To determine the assay blank value (0% activity), NADPH is omitted from some reactions.
(§4) Dose dependent inhibition is quantified by the inclusion of compound at various concentrations. Maximum activity (100%) is defined by reactions containing NADPH, but without compound.

[2] = system: aldosterone synthase (CYP11B2); experiment: as above; settings: selectivity for aldosterone synthase inhibition over cortisol synthase (CYP11B1) inhibition, fold
Protocol: as §1, §2, §3, §4

[3] = molecular target: cortisol synthase (CYP11B1) (Macaca fascicularis, UniProt A0A2K5ULY1); experiment: Inhibition of cortisol synthesis (cynomolgus adrenal mitochondria, cortisol by mass spectrometry)
Protocol: The aldosterone synthase and cortisol synthase inhibition assays employ cynomolgus adrenal gland mitochondria as the source of aldosterone synthase (CYP11B2) and cortisol synthase (CYP11B1). Mitochondria are prepared from frozen cynomolgus monkey adrenal glands according to Method A described in by J. D. McGarry et al. (Biochem. J., 1983, 214, 21-28), with a final resuspension in the AT buffer described in R. Yamaguchi et al. (Cell Death and Differentiation, 2007, 14, 616-624), frozen as aliquots in liquid nitrogen and stored at −80° C. until use. One unit of CYP11B2 and CYP11B1 activity in these preparations is defined as the amount of enzyme that generates 1 pmol of product in one hour under the conditions described.
as §3
Dose dependent inhibition is quantified by the inclusion of compound at various concentrations. Maximum activity (100%) is defined by reactions containing NADPH, but without compound. Activities at each concentration are expressed as a percentage of the maximum activity (y-axis) and plotted against concentration of compound (x-axis) and the concentration corresponding to 50% activity (IC50) determined using the XLFit curve-fitting program using a 4-parameter logistic model.
Assays are performed as for aldosterone synthase except for the use of 150 units of CYP11B1, 11-deoxycortisol as substrate and cortisol measured as product.

[4] = 11-deoxycortisol substrate, 150 units CYP11B1; read-out: Cortisol Inhibition IC50

SMILES | IC50 [1] [nM] | Selectivity [2] | IC50 [3, 4] [nM] | IC50 ([3]; read-out: Cortisol Inhibition IC50; 11-deoxycortisol substrate, 150 units CYP11B1) [nM]
CC1(C)CC(=O)c2c(ncn2-c2ccc(Cl)nc2)C1 [C-ABT, 3-(6-Chloro-pyridin-3-yl)-6,6-dimethyl-3,5,6,7-tetrahydro-benzoimidazol-4-one] | 230 | 30 | 6900 | –
CC1(C)CC(=O)c2c(ncn2-c2ccc3c(c2)OCO3)C1 [C-ABU, 3-Benzo[1,3]dioxol-5-yl-6,6-dimethyl-3,5,6,7-tetrahydro-benzoimidazol-4-one] | 34 | 120 | 4200 | –
Cc1cc(-n2cnc3c2C(=O)CC(C)(C)C3)ccc1C#N [C-ABV, 4-(5,5-Dimethyl-7-oxo-4,5,6,7-tetrahydro-benzoimidazol-1-yl)-2-methyl-benzonitrile] | 6.6 | 20 | 130 | –
COC(=O)c1ccc(-n2cnc3c2C(=O)CC(C)(C)C3)cc1 [C-ABW, 4-(5,5-Dimethyl-7-oxo-4,5,6,7-tetrahydro-benzoimidazol-1-yl)-benzoic acid methyl ester] | 310 | 24 | 7500 | –
CC1(C)CC(=O)c2c(ncn2-c2ccc(C#N)cc2)C1 [C-ABX, 4-(5,5-Dimethyl-7-oxo-4,5,6,7-tetrahydro-benzoimidazol-1-yl)-benzonitrile] | 17 | 80 | 1300 | –
CC1(C)CC(=O)c2c(ncn2-c2cccc(C(F)(F)F)c2)C1 [C-ABZ, 6,6-Dimethyl-3-(3-trifluoromethyl-phenyl)-3,5,6,7-tetrahydro-benzoimidazol-4-one] | 73 | 370 | 27000 | –
CC1(C)CC(=O)c2c(ncn2-c2ccccc2)C1 [C-ACA, 6,6-Dimethyl-3-phenyl-3,5,6,7-tetrahydro-benzoimidazol-4-one] | 250 | 46 | 12000 | –
Cc1ccc(-n2cnc3c2C(=O)CC(C)(C)C3)cc1 [C-ACB, 6,6-Dimethyl-3-p-tolyl-3,5,6,7-tetrahydro-benzoimidazol-4-one] | 22 | 200 | 4400 | –
CN1C(=O)CCc2cc(-n3cnc4c3C(=O)CCC4)ccc21 [C-ACD, 1-Methyl-6-(7-oxo-4,5,6,7-tetrahydro-benzoimidazol-1-yl)-3,4-dihydro-1H-quinolin-2-one] | 60 | 920 | 55000 | –
O=C1CC2(CCC2)Cc2ncn(-c3ccc(F)c(F)c3)c21 [C-ACE] | 20 | 32 | 630 | –
N#Cc1ccc(-n2cnc3c2C(=O)CC2(CCC2)C3)cc1Cl [C-ACG, 3-(4-Cyano, 3-chlorophenyl)-6,6-spirocyclobutyl-3,5,6,7-benzimidazolo-4-one] | 12 | 7.5 | – | 93
CN1C(=O)CCc2cc(-n3cnc4c3C(=O)CC3(CC3)C4)ccc21 [C-ACH, 3-(1-Methyl-2-oxo-3,4-dihydroquinolin-6-yl)spiro[5,7-dihydrobenzimidazole-6,1′-cyclopropane]-4-one] | 16 | 300 | 4900 | –
CC1(C)CC(=O)c2c(ncn2-c2ccc(C(F)(F)F)cc2)C1 [C-ACI, 6,6-Dimethyl-3-(4-trifluoromethyl-phenyl)-3,5,6,7-tetrahydro-benzoimidazol-4-one] | 62 | 290 | 18000 | –
CC1(C)CC(=O)c2c(ncn2[C@H]2C[C@@H]3CC[C@H]2C3)C1 [C-ACL, 3-(1S,2S,3R)-Bicyclo[2.2.1]hept-2-1-6,6-dimethyl-3,5,6,7-tetrahydro-benzoimidazol-4-one] | 180 | 87 | 16000 | –
COc1ccc2c(c1)CCC(n1cnc3c1C(=O)CC(C)(C)C3)C2 (stereo not drawn) [C-ACN, 3-(6-Methoxy-1,2,3,4-tetrahydro-naphthalen-2-yl)-6,6-dimethyl-3,5,6,7-tetrahydro-benzoimidazol-4-one] | 24 | 460 | 11000 | –
CC1(C)CC(=O)c2c(ncn2CC2CCCCC2)C1 [C-ACP, 3-Cyclohexylmethyl-6,6-dimethyl-3,5,6,7-tetrahydro-benzoimidazol-4-one] | 24 | 240 | 5900 | –
CC1(C)CC(=O)c2c(ncn2C2CCc3ccccc32)C1 (stereo not drawn) [C-ACQ, 3-Indan-1-yl-6,6-dimethyl-3,5,6,7-tetrahydro-benzoimidazol-4-one] | 220 | 130 | > 30000 | –
CN1C[C@@H](n2cnc3c2C(=O)CC(C)(C)C3)CCC1=O [C-ACR, 6,6-Dimethyl-3-((S)-1-methyl-6-oxo-piperidin-3-yl)-3,5,6,7-tetrahydrobenzoimidazol-4-one] | 785 | 38 | > 30000 | –
CC1(C)CC(=O)c2c(ncn2C2CC3(COC3)C2)C1 [C-ACT, 6,6-Dimethyl-3-(2-oxa-spiro[3.3]hept-6-yl)-3,5,6,7-tetrahydro-benzoimidazol-4-one] | 780 | 38 | > 30000 | –
CC1(C)CC(=O)c2c(ncn2C2CC(c3ccccc3)C2)C1 (stereo not drawn) [C-ACU, 6,6-Dimethyl-3-(3-phenyl-cyclobutyl)-3,5,6,7-tetrahydro-benzoimidazol-4-one] | 110 | 85 | 9400 | –
CC1(C)CC(=O)c2c(ncn2C2CCc3ncncc3C2)C1 (stereo not drawn) [C-ACV, 6,6-Dimethyl-3-(5,6,7,8-tetrahydro-quinazolin-6-yl)-3,5,6,7-tetrahydro-benzoimidazol-4-one] | 860 | 35 | > 30000 | –
CC1(C)CC(=O)c2c(ncn2C2CCCCc3ccccc32)C1 (stereo not drawn) [C-ACW, 6,6-Dimethyl-3-(6,7,8,9-tetrahydro-5H-benzocyclohepten-5-yl)-3,5,6,7-tetrahydro-benzoimidazol-4-one] | 24 | 300 | 7200 | –
CC1(C)CC(=O)c2c(ncn2CC2CCOC2)C1 (stereo not drawn) [C-ACX, 6,6-Dimethyl-3-(tetrahydro-furan-3-ylmethyl)-3,5,6,7-tetrahydro-benzoimidazol-4-one] | 870 | 35 | > 30000 | –
CC1(C)CC(=O)c2c(ncn2Cc2ccc3[nH]ncc3c2)C1 [C-ACY, 3-(1H-Indazol-5-ylmethyl)-6,6-dimethyl-3,5,6,7-tetrahydro-benzoimidazol-4-one] | 110 | 15 | 1700 | –
COC(=O)c1ccc(Cn2cnc3c2C(=O)CC(C)(C)C3)cc1 [C-ACZ, 4-(5,5-Dimethyl-7-oxo-4,5,6,7-tetrahydro-benzoimidazol-1-ylmethyl)-benzoic acid methyl ester] | 34 | 41 | 1400 | –
CC1(C)CC(=O)c2c(ncn2CC2CC2)C1 [C-ADA, 3-Cyclopropylmethyl-6,6-dimethyl-3,5,6,7-tetrahydro-benzoimidazol-4-one] | 530 | 23 | 12000 | –
CC1(C)CC(=O)c2c(ncn2Cc2ccc(-n3cncn3)cc2)C1 [C-ADB, 6,6-Dimethyl-3-(4-[1,2,4]triazol-1-yl-benzyl)-3,5,6,7-tetrahydro-benzoimidazol-4-one] | 540 | 14 | 7400 | –
